The source of these data is article PMC5344956 (Cancer Chemotherapy and Pharmacology, 2017).

Where only a bound is given, the exact number is not on record here.

Data set [1] has as its target T1, BCR–ABL (Homo sapiens, UniProt P00519+P11274).
T1 sequence (P00519 229-512 limits assumed): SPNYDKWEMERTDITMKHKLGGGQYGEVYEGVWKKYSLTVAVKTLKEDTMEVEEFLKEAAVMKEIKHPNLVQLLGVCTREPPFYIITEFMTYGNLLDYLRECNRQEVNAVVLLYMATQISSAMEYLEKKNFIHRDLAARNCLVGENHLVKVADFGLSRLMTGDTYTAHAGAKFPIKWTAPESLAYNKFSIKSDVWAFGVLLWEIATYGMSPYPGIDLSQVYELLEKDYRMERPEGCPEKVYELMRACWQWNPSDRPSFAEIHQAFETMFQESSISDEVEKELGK
As to the kind of experiment: In vitro cellular activity screen against BCR–ABL (data not shown). Type of data set: cell-based.

Data set [2] is described as follows: Metabolite profiling of urine (HPLC-radiochromatography). Type of data set: in vivo, human. As to conditions: 0–72 h pool. As for the experimental part: Predose and 0–72-h urine samples (grand pool of all six subjects) were prepared. Urine samples (5 mL) were centrifuged, the supernatant was transferred to a 15-mL polypropylene tube and placed on ice; the residues were extracted with 1 mL of methanol and the methanol extracts were added to the supernatants. The combined extracts were evaporated under nitrogen and reconstituted in 0.2 mL of methanol. A 0.010-mL aliquot of the reconstituted solution was removed for determination of radioactivity, and the remainder was transferred to HPLC vials and stored at −80 °C.
(§1) A Finnigan Surveyor HPLC system (Thermo Fisher Scientific Inc., San Jose, CA, USA), consisting of an LC pump plus an autosampler and a UV–Vis plus detector, was used mostly for profiling (except the post-24-h plasma samples, which were analyzed using a Dionex HPLC system). A Phenomenex® Gemini® C18, 5-μm, 3.0 × 100-mm column (Phenomenex Inc., Torrance, CA, USA) was used along with a C-12 guard column (4 × 2 mm). LC conditions were as follows: solvent A was 10 mM ammonium bicarbonate in water (pH 10.0) and solvent B was 100% methanol and the flow rate was 0.8 mL/min. The following gradient was employed (B%): 0–5 min (20%), 32 min (42%), 33 min (60%), 55 min (70%), 56–60 min (95%), and 62–70 min (20%).
(§2) Reconstituted solvent extracts (0.050–0.10 mL) of plasma, urine, or feces were injected onto the HPLC column. The post-column eluate was split after UV detection into two streams (0.64 and 0.16 mL/min). The 0.64-mL stream was diverted to a fraction collector (Gilson FX 204; Gilson Medical Electronics, Middleton, WI, USA) to be collected in 96-well plates at 0.16 min/well (ScintiPlates; PerkinElmer Life Sciences, Shelton, CT, USA), and the 0.16-mL stream was directed to the mass spectrometer. The solvent in the 96-well plates was removed at 40 °C using a Genevac evaporator (Genevac, Inc., Stone Ridge, NY, USA).
(§3) The radioactivity counts per minute (CPM) in each well was determined using a MicroBeta scintillation counter (PerkinElmer Life and Analytical Sciences). The resulting CPM vs. time data were processed using Excel (Microsoft Corporation, Seattle, WA, USA). The CPM in each well was background-subtracted (using the average CPM values of the blank region of the HPLC run). Radiochromatographic profiles were obtained by plotting the resulting net CPM values against time after injection. Radioactive peaks in the chromatographic profiles were identified, and the radioactivity in each peak was summed and reported as a percentage of TRA in the HPLC run.

The nature of data set [3]: Plasma pharmacokinetics of TRA, ponatinib and metabolites after a single oral 45-mg [14C]ponatinib dose. As to conditions: for time postdose at which C max / maximal levels in plasma were observed: single oral 45-mg dose, M23 by radiochromatography; for concentration at 144 h: oral. As for the experimental part:
The subject release criterion was defined as follows: the combined urine and fecal radioactivity excretion for two consecutive days should fall below 1% of the dose administered.
Detailed procedures on sample collection, storage, and shipment are described in Online Resource 1. […] Fecal homogenates were prepared by adding water (four times the feces weight) and homogenizing.
TRA analysis was carried out at ABC Laboratories. The radioactivity in plasma (duplicate per time point) and urine samples (triplicate per time point) was quantitated by direct counting in a Beckman LS6000SC or LS6500 liquid scintillation counter (PerkinElmer Life and Analytical Sciences, Boston, MA, USA). Whole blood (duplicate per time point) and fecal homogenate (triplicate per time point) samples were oxidized, and the resultant ^14CO2 was trapped in Carbosorb (Calgon Carbon Corporation, Pittsburgh, PA, USA) in combination with Permafluor, followed by liquid scintillation counting to determine the radioactivity. Individual samples were counted for 5 min for whole blood and fecal matrices, and 10 min for plasma and urine matrices. Predose blood, plasma, urine, and feces samples served as respective control samples to determine and subtract the background radioactivity in the analysis.
M14 was quantitated using a different LC/MS/MS method (Online Resource 2). The pharmacokinetic analysis was carried out using WinNonlin® v6.4 (Pharsight Corp., Mountain View, CA, USA).
Aliquots of 30 µl of calibration standards, quality controls, and incurred plasma samples were transferred into a 96-well plate. Then 150 µl of ice-cold acetonitrile containing 50 ng/ml of AP30376 (d6-AP24600, internal standard) were added. The 96-well plate was vortexed for 10 min and then centrifuged at 4750 rpm for 20 min at 4°C. 100 µl aliquots of the supernatants were transferred into another 96-well plate and the samples were analyzed by liquid chromatography tandem mass spectrometry.

Data set [4] has as its system BCR–ABL. Put plainly: In vitro kinase activity screen against BCR–ABL (data not shown). It counts as biochemical.
Data set [5] can be described thus: Metabolite profiling of plasma (HPLC-radiochromatography). Type of data set: in vivo, human. To be noted: % of TRA. As for the experimental part: For each subject, a 0–24 h pooled plasma sample was prepared according to the scheme outlined in the literature. In addition, several pooled plasma samples across all subjects were prepared at these time points: 5, 10, 12, […], and 48 h, and every 24 h thereafter until 240 h.
All pooled 0–24, 5, 10, 12, and 24 h plasma samples were processed as follows. […] The samples were vortexed for 30 min and centrifuged at 4500g at 4 °C for 6 min. The supernatants were transferred into new polypropylene tubes and kept on ice. The resulting plasma protein pellets were extracted twice to ensure good recovery and the extracts were combined. The combined extracts were loaded onto Ostro sample preparation plates (Waters Corporation, Milford, MA, USA), dried, eluted with 0.2 mL of cold acetonitrile, and all eluates were collected and evaporated under nitrogen (TurboVap LV; Caliper Life Sciences, Hopkinton, MA, USA). The dry residues were reconstituted in 0.1 mL of methanol, and a 0.005-mL aliquot was removed for determination of radioactivity. The remainder of the supernatants were transferred to high-performance liquid chromatography (HPLC) vials and stored at −80 °C until analysis.
Pooled post-24-h plasma samples were extracted using a slightly modified procedure. […] Appropriate volumes of formic acid were added to achieve a final concentration of 1%. Then, the samples were warmed to 37 °C and loaded to preconditioned Oasis HLB cartridges (Waters Corporation, Milford, MA, USA). These columns were then washed with water, dried under vacuum, and eluted with methanol. The eluates were collected and evaporated under nitrogen. The dry residues were reconstituted in 0.1 mL of methanol, and a 0.005-mL aliquot was removed for determination of radioactivity. The remainder of the supernatants were transferred to HPLC vials and stored at −80 °C until analysis.
as §1, §2, §3

A short description of data set [6]: Metabolite characterization by LC/MS/MS in human plasma, urine, and feces. To be noted: human plasma, urine, feces; LC/MS/MS. As for the experimental part:
The remaining eluate stream of 0.16 mL/min from the HPLC runs was diverted to the inlet of the mass spectrometer. The samples were analyzed using a heated electrospray ionization probe. Full-scan positive ion MS data were collected using Finnigan Exactive (MS^1) or Q-Exactive (MS^1 and MS^2) mass spectrometers (Thermo Fisher Scientific Inc.) Exact conditions are described in the Online Resource 3.
Finnigan Exactive or Q-Exactive mass spectrometers (Thermo Fisher Scientific Inc., San Jose, CA) were used to collect full scan MS^1 and MS^2 data.

One may read the AUC(0-inf) as total exposure, with the tail of the curve extrapolated. The term AUC(0-t) denotes exposure summed from dosing to a finite time, without extrapolation to infinity. What is called Cmax is the peak of the concentration-time curve. A word on the Tmax: it is the time at which the peak concentration occurs. As usually defined, the half-life is the time in which the quantity being followed falls by half. Take `Cc1ccc(C(=O)O)cc1C#Cc1cnc2cccnn12` [M14, 3-(imidazo[1,2-b]pyridazin-3-ylethynyl)-4-methylbenzoic acid]: at BCR–ABL [1], the “activity against BCR–ABL, cellular activity screen” value is “inactive”. In data set [2], the “% of total radioactive dose” value was 0.3%. Besides, the “% Distribution in matrix” value in data set [2] (% of urinary TRA) was found to be 5.6%. Moreover, the “plasma level at 144 h postdose” value in data set [3] (human plasma, 144 h postdose) is “at or below detectable limits”. In addition, the “time postdose at which C max / maximal levels in plasma were observed” value in data set [3] (human plasma) was 2 to 12 h. In addition, the concentration at 144 h in data set [3] (male, human, plasma, 45 mg) was below 2.4 nM. Moreover, the AUC(0-inf) in data set [3] (male, human, plasma, po, 45 mg) was determined as 0.181 µM·h. The AUC(0-t) in data set [3] (male, human, plasma, po, 45 mg) was 0.169 µM·h. In addition, the peak concentration (Cmax) in data set [3] (male, human, plasma, po, 45 mg) came out at 5 nM. The Tmax in data set [3] (male, human, plasma, po, 45 mg) is 5 h. The half-life in data set [3] (male, human, plasma, po, 45 mg) was 33.7 h. Further, in the data set with BCR–ABL [4], the “activity against BCR–ABL, kinase screen” value is “inactive”. The “% Distribution in plasma” value is recorded as 14.9% in data set [5] (0–24 h pooled plasma); 29.0% in data set [5] (5 h pooled plasma); 10.8% in data set [5] (10 h pooled plasma); 12.8% in data set [5] (12 h pooled plasma); 2.4% in data set [5] (36 h pooled plasma); “– (“–” values less than 0.5% are not reported)” in data set [5] (48 h pooled plasma). The “% Distribution in plasma” value in data set [5] (72 h pooled plasma) and in data set [5] (96 h pooled plasma) was “– (“–” values less than 0.5% are not reported)” each time. In addition, the “Matrix (in which the metabolite was found)” value in data set [6] is listed as “P, U”.
Regarding `Cc1ccc(C(=O)Nc2ccc(C(=O)O)c(C(F)(F)F)c2)cc1C#Cc1cnc2cccnn12` [M23, 4-(3-(imidazo[1,2-b]pyridazin-3-ylethynyl)-4-methylbenzamido)-2-(trifluoromethyl)benzoic acid], on BCR–ABL [1], the “activity against BCR–ABL, cellular activity screen” value was “inactive”. Moreover, the “time postdose at which C max / maximal levels in plasma were observed” value in data set [3] (human plasma) came out at 36 h. The concentration at 144 h in data set [3] (male, human, plasma, 45 mg) was below 3 nM. Moreover, the “activity against BCR–ABL, kinase screen” value in the data set with BCR–ABL [4] is “inactive”. Also, the “% Distribution in plasma” value in data set [5] (0–24 h pooled plasma) is recorded as 7%; in data set [5] (5 h pooled plasma), “– (“–” values less than 0.5% are not reported)”; in data set [5] (10 h pooled plasma), 3.4%; in data set [5] (12 h pooled plasma), 2.4%; in data set [5] (36 h pooled plasma), 3.9%; in data set [5] (48 h pooled plasma) it was 5.4%. The “% Distribution in plasma” value is recorded as 10.7% in data set [5] (72 h pooled plasma) and 6.0% in data set [5] (96 h pooled plasma). Also, the “Matrix (in which the metabolite was found)” value in data set [6] is “P, U, F”.
